# Experimental data taken from patent publication US5260327A, “Methods for inhibiting the proliferation of brain and hepatic metastases by using lonidamine” (priority 1992, dated 1993).
# “Also recorded” adds a separate entry of the source.
# Key:
# [1] = tested on: cultured tumor cell lines; conditions: cited from earlier work
# HeLa S-3 cells [2] = assay: Effect of gossypol on cell survival at elevated temperature, pH and glucose conditions; assay type: cell-based, human; conditions: for viability at 10 µg/mL: Homo sapiens, HeLa S3
# Protocol: (§1) Experiments were carried out with HeLa S-3 cells grown in Eagle's minimal essential medium supplemented with 10% fetal calf serum.
# Plated monolayer cells were heated within 0.05° of the desired temperature by totally immersing plastic culture flasks in a heated water bath. Water bath temperatures were verified by a National Bureau of Standards thermometer.
# (§2) The pH of the culture medium was adjusted by varying the CO2 content of the gas phase within the flasks. The buffering system of Eagle's minimal essential medium consisted of 26 mM NaHCO3 at 5% CO2 for neutral pH of 7.4. To obtain a pH of 6.7, for example, the flasks were flushed with the gas mixtures containing 26% CO2. The pH of the culture medium was monitored throughout the treatment procedures by sealing a combination electrode in a treatment vessel and monitored with temperature-compensated digital pH meter.
# (§3) The "glucose-deprived" medium was prepared by adding 10% dialyzed fetal calf serum to the culture medium without glucose. The dialyzed fetal calf serum contained less than 1 mg glucose per 100 ml so that the final concentration of glucose in the "glucose-deprived" medium was less than 0.001 mg per ml.
# (§4) Gossypol was dissolved in DMSO immediately prior to experiments. DMSO produced no enhancement of hyperthermic cytotoxicity with the range studied.
# For example, at 10 μg/m. and 2 hours exposure at 42° C., the cells survival is reduced to 1% under acidic condition. Heat treatment alone reduces the cell survival to only 50% of the control.
# Since gossypol has been reported to interfere with cellular energy metabolism, experiments were performed to determine the influence of glucose on the cytotoxic effect of gossypol. […] The survival of glucose-fed cells exposed to the same treatment was approximately 10% while that of glucose-deprived cells can further enhance the cytotoxic effect of gossypol at elevated temperature.
# [3] = tested on: glycolytic and mitochondrial bound enzymes; conditions: cited from earlier work
# testicular tissues = conditions: cited from earlier work
# spermatogenesis = conditions: in vivo; cited from earlier work
# HeLa cells = assay: Effect of gossypol on cell multiplication at 37° C.; assay type: cell-based, human
# Protocol: as §1, §2, §4
# Preliminary experiments were carried out to determine the effect of gossypol on cell division. Exponentially growing HeLa cells were exposed to the drug for 72 hours at 37° C. Control cells grew exponentially with a doubling time of approximately 19 hours.
# cell culture models = assay: Radiation enhancement by nicotinamide in cell culture; assay type: cell-based
# Source text: (22) See FIGS. 9 and 10. As noted previously, the following DMF's were obtained for the respective experimental conditions: Nicotinamide+Radiation Therapy=1.36, Hyperthermia+Radiation Therapy=1.36, Nicotinamide+Hyperthermia+Radiation Therapy=1.64.
# Meth-A fibrosarcoma = assay: Radiation enhancement by nicotinamide in Meth-A fibrosarcoma; assay type: in vivo, murine; conditions: radiosensitive tumor
# Source text: The mechanism by which nicotinamide produces radiation enhancement is not established.
# [4] = tested on: EMT-6, Lewis Lung, and RIF-1 tumors; conditions: injection prior to radiation treatment; cited from earlier work
# [5] = in vivo; cited from earlier work
# [6] = Tolerability of nicotinamide in mice; conditions: optimal dose of 0.5 gm/kg (1.5 gm/m^2)
# MCA mammary carcinoma = assay: Radiation enhancement in the transplanted MCA mammary carcinoma, with or without mild hyperthermia; assay type: in vivo, murine
# Protocol: Nicotinamide was administered intraperitoneal one (1) […] before irradiation. Localized mild hyperthermia (41° C.) was applied for one (1) hour immediately prior to irradiation.
# [7] = tested on: poly-ADP ribose synthetase; conditions: cited from earlier work
# [8] = tested on: C3H mammary adenocarcinoma; conditions: transplanted C3H mammary adenocarcinoma; cited from earlier work
# cells = conditions: high doses; cited from earlier work
# HeLa S-3 cells [9] = assay: cells; assay type: cell-based, human; conditions: for viability at 10 µg/mL: Homo sapiens, HeLa S3, 24 hours
# Protocol: Experiments were carried out with HeLa S-3 cells grown in Eagle's minimal essential medium supplemented with 10% fetal calf serum. […] No antifungal agent was used.
# Cell survival was assayed by colony-forming ability of plated single cells to obtain quantitative dose-survival curves. Details of cloning experiments including colony court have been described elsewhere (See, e.g., Kim et al. supra).
# Plated a synchronous monolayer cells were heated to within 0.05° C. of the desired temperature by totally immersing plastic culture flasks in a water bath. Water bath temperatures were verified by a National Bureau of Standards calibrated thermometer.
# The pH of the culture medium was adjusted by varying the CO2 content of the gas phase within the flasks. […] The pH of the culture medium was monitored throughout the treatment procedures by sealing a combination electrode in a treatment vessel and monitored with a temperature-compensated digital pH meter.
# as §3
# [10] = human cancer cells (HeLa), heated
# [11] = acidic pH, glucose-deprived cells
smiles,measurement,setting,value
Cc1cc2c(C(C)C)c(O)c(O)c(C=O)c2c(O)c1-c1c(C)cc2c(C(C)C)c(O)c(O)c(C=O)c2c1O [gossypol],anti-tumor effects,[1],anti-tumor effects against cultured tumor cell lines
same,"cytotoxicity, glucose deprivation at 37° C.","HeLa S-3 cells [2]; 10 μg/ml, glucose-deprived, 37° C., pH 7.4",no apparent cytotoxicity
same,"cell killing, glucose deprivation at 42° C.","HeLa S-3 cells [2]; 10 μg/ml, glucose-deprived, 42° C. for 4 hours, pH 7.4",a substantial increase in cell killing
same,drug toxicity (cell survival),"HeLa S-3 cells [2]; 5 and 10 μg/ml, up to 4 hours, 37° C., acidic or neutral conditions",no appreciable drug toxicity
same,viability at 10 µg/mL,"HeLa S-3 cells [2]; 10 μg/ml, 2 hours exposure at 42° C., acidic condition (heat alone: 50% of control), read-out: cell survival",1%
same,viability at 10 µg/mL,"HeLa S-3 cells [2]; 10 μg/ml, glucose-fed, 42° C. for 4 hours, pH 7.4, read-out: survival of glucose-fed cells",~10%
same,pH dependence of cytotoxic effect of hyperthermia on drug-treated cells,"HeLa S-3 cells [2]; elevated temperature, acidic vs neutral",most pronounced under acidic conditions
same,hyperthermic sensitization,HeLa S-3 cells [2]; [10],effective hyperthermic sensitizers of human cancer cells
same,enzyme inhibition,[3],inhibition of glycolytic and mitochondrial bound enzymes
same,toxicity to testicular tissues,testicular tissues; in vivo,selectively toxic to testicular tissues
same,effect on other tissues,testicular tissues; non-testicular tissues,no observable effect on other tissues
same,inhibition of spermatogenesis,spermatogenesis,inhibitor of spermatogenesis
same,growth rate versus control,HeLa cells; 1.25 μg/ml,the same as that of the control cells
same,doubling time,"HeLa cells; 2.5 μg/ml, incubation times greater than 24 hours",a lengthening of doubling time was observed
same,growth curve versus control,"HeLa cells; 2.5 μg/ml, initial 24 hours",not significantly different from the control
same,cell growth (multiplication),"HeLa cells; 5, 10 and 20 μg/ml, 72 hours",grew exponentially for the first 24 hour period and then remained stationary
NC(=O)c1cccnc1 [nicotinamide],activity in cell culture models,cell culture models; in our hands,not active in cell culture models
same,radiation enhancement in cell culture,cell culture models; nicotinamide concentrations <10 mM,No radiation enhancement
same,radiation enhancement in oxic Meth-A fibrosarcoma,Meth-A fibrosarcoma,inactive against the oxic Meth-A fibrosarcoma model; also recorded: no radio-enhancing effect
same,optimal timing of drug for radiation enhancement,[4],1 to 3 h
same,safety in humans,[5],safe and associated with only a low incidence of side effects
same,toxicity in mice,[6],non-toxic in mice
same,"radiation dose modification factor, nicotinamide + hyperthermia + radiation","MCA mammary carcinoma; 0.5 gm/kg 1 hour prior to radiation, 41° C. for one hour, b79 statement",1.77
same,"DMF, Nicotinamide+Hyperthermia+Radiation Therapy","MCA mammary carcinoma; 125 to 500 mg/kg i.p. one hour prior to irradiation, 1 hour heating at 41° C., b86 statement",1.64
same,"DMF, Nicotinamide+Radiation Therapy","MCA mammary carcinoma; 125 to 500 mg/kg i.p. one hour prior to irradiation, b86 statement",1.36
same,enhancement of effects of radiation and radiation plus hyperthermia,"MCA mammary carcinoma; 125 to 500 mg/kg i.p., one hour prior to irradiation, 41° C. 1 hour",clear enhancement of the effects of radiation and radiation plus hyperthermia
same,"DMF, nicotinamide plus radiation (without hyperthermia)","MCA mammary carcinoma; without hyperthermia, b79 statement",1.35
same,inhibition of poly-ADP ribose synthetase,[7],inhibitor of poly-ADP ribose synthetase
same,radiation enhancing effects,[8],radiation enhancing effects
O=C(O)c1cccnc1 [nicotinic acid],"radiation enhancement, MCA mammary tumor, nicotinic acid",MCA mammary carcinoma; even at the LD10 dosage,did not produce radiation enhancement
COC(=O)c1ccccc1-c1c2ccc(=N)cc-2oc2cc(N)ccc12 [rhodamine 123],effects of continuous exposure,cells,"inhibit oxidative phosphorylation, to arrest cells in G1 phase, and to induce loss of reproductive capacity"
same,"cell surviving fraction, initial 4 hour exposure","HeLa S-3 cells [9]; 10 μg/ml, 4 hours, 37° C., glucose-fed or glucose-deprived",no appreciable reduction in the cell surviving fraction
same,"cell survival at 37° C., exposure limit","HeLa S-3 cells [9]; 37° C., 4 hour",did not produce any detectable reduction in cell survival
same,"effect on hyperthermic cytotoxicity, glucose-deprived vs glucose-fed cells","HeLa S-3 cells [9]; 40, 41 and 42° C., up to 4 hours",selectively increased the cytotoxic effects of hyperthermia in glucose-deprived cells relative to glucose-fed cells
same,viability at 10 µg/mL,"HeLa S-3 cells [9]; 10 μg/ml, 37° C., glucose-deprived, read-out: surviving fraction in the absence of glucose",< 1%
same,viability at 10 µg/mL,"HeLa S-3 cells [9]; 10 μg/ml, 37° C., glucose-fed, read-out: surviving fraction in the presence of glucose",80%
same,cytotoxicity at acidic pH relative to pH 7.4,HeLa S-3 cells [9]; [11],less than that observed at pH 7.4
same,influence of acidic pH on cytotoxicity of heat,HeLa S-3 cells [9]; [11],did not substantially enhance the cytotoxicity of heat in glucose-deprived cells
same,dependence of potentiation of heat effects,"HeLa S-3 cells [9]; glucose-deprived cells, two hours",dependent on the elevated temperature and drug concentration in glucose-deprived cells
same,hyperthermia enhancement in glucose-fed cells,"HeLa S-3 cells [9]; glucose-fed, different temperatures for two hours",No hyperthermia enhancement
same,hyperthermic sensitization,HeLa S-3 cells [9]; [10],effective hyperthermic sensitizers of human cancer cells
